Measurements as given in patent publication US10144758B2, “Deuterated bile acids” (Metselex, Inc., priority 2013, dated 2018).

Experiments:
primary rat hepatocytes [1] = test: DCA-induced caspase-3/7 activity (ApoTox-Glo Triplex); format: cell-based; conditions: 50 and 100 μM DCA; pretreatment; FIG. 7B
Experimental: Primary rat hepatocytes were isolated from male rats (100-150 grams) by collagenase perfusion (as described by Solá S, et al., 2003, Journal of Biological Chemistry 278: 48831-48838)). Briefly, rats were anesthetized with phenobarbital sodium (100 mg/kg body weight) injected into the peritoneal cavity. After administration of heparin (200 units/kg body weight) in the tail vein, the animal's abdomen was opened and the portal vein exposed and cannulated. The liver was then perfused at 37° C. in situ with a calcium-free Hanks' Balanced Salt Solution (HBSS) for about 10 minutes, and then with 0.05% collagenase type IV in calcium-present HBSS for another 10 minutes. […] Cell viability was determined by trypan blue exclusion and was typically 80-85%. […]
The ApoTox-Glo™ Triplex Assay (Promega Corp., Madison, Wis., USA) was used to evaluate cell viability, cytotoxicity and caspase-3/7 activity, according to the manufacturer's protocol, using a GloMax+ Multi Detection System (Promega Corp.). General cell death was also evaluated using the lactate dehydrogenase (LDH) Cytotoxicity Detection Kit^PLUS (Roche Diagnostics GmbH, Mannheim, Germany), following the manufacturer's instructions. […]

primary rat hepatocytes [2] = test: TGF-β1-induced apoptosis, percentage of apoptotic cells; format: cell-based; conditions: 1 nM TGF-β1 36 hours; 100 μM compound pre-treatment; FIG. 8B
Experimental: Primary rat hepatocytes were isolated from male rats (100-150 grams) by collagenase perfusion (as described by Solá S, et al., 2003, Journal of Biological Chemistry 278: 48831-48838)). Briefly, rats were anesthetized with phenobarbital sodium (100 mg/kg body weight) injected into the peritoneal cavity. After administration of heparin (200 units/kg body weight) in the tail vein, the animal's abdomen was opened and the portal vein exposed and cannulated. The liver was then perfused at 37° C. in situ with a calcium-free Hanks' Balanced Salt Solution (HBSS) for about 10 minutes, and then with 0.05% collagenase type IV in calcium-present HBSS for another 10 minutes. […] Cell viability was determined by trypan blue exclusion and was typically 80-85%. […] Fluorescence was visualized using an Axioskop fluorescence microscope (Carl Zeiss GmbH). Blue-fluorescent nuclei were scored blindly and categorized according to the condensation and staining characteristics of chromatin. […] Five random microscopic fields per sample containing approximately 150 nuclei were counted, and mean values expressed as the percentage of apoptotic nuclei. […] Results are expressed as means±SEM of at least three experiments. *p<0.01 from control; § p<0.05 and †p<0.01 from TGF-β1.

Row | Compound | inhibition of caspase activity (primary rat hepatocytes [1]) | reduction of the percentage of apoptotic cells (primary rat hepatocytes [2]) [%]
1 | 7,8-[^2H]-3α,7α-dihydroxy-5β-cholan-24-oic acid/7-[^2H]-3α,7α-dihydroxy-5β-cholan-24-oic acid [Compound 5] | more effective than UDCA | ~40
2 | C[C@H](CCC(=O)O)[C@H]1CC[C@H]2[C@@H]3[C@@H](O)C[C@@H]4C[C@H](O)CC[C@]4(C)[C@H]3CC[C@]12C [UDCA, Ursodeoxycholic acid, reference compound] |  | ~40
